The experiment deals with T1, serotonin 5-HT1A receptor (Rattus norvegicus, UniProt P19327).
T1 sequence (P19327 1-422): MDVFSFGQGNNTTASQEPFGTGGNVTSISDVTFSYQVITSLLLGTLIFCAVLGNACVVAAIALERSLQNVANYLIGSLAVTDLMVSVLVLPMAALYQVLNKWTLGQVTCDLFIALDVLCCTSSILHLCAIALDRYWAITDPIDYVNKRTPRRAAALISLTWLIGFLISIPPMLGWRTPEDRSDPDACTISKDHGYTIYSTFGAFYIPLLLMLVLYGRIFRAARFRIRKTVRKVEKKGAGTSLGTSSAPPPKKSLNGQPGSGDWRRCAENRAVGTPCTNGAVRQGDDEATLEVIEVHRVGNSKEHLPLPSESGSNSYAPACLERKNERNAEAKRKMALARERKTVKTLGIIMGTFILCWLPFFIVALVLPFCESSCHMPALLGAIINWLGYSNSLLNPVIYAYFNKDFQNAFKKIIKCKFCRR
Nature of the experiment: [3H]WAY-100635 radioligand displacement in rat brain homogenates. In kind it is binding. (In general: Loss of bound radioactivity is the signal in a displacement assay; it reports binding, not function.)

One may read the Ki as the equilibrium dissociation constant of an inhibitor or competing ligand from its target. Higher therefore signals weaker binding.

Molecules are shown by their SMILES.

With `COc1ccccc1N1CCN(CCN(c2ccccn2)C(=O)[C@H]2CC[C@H](CF)CC2)CC1` [trans-mefway, N-{2-[4-(2'-methoxyphenyl)piperazinyl]ethyl}-N-(2-pyridyl)-N-(cis/trans-4'-[^18F]fluoromethylcyclohexane)-carboxamide], the Ki is 840 pM.
